# Experimental data: patent US20260232767A1, “INTERLEUKIN-23 RECEPTOR ANTAGONIST PEPTIDES FOR USE IN THE TREATMENT OF PSORIASIS” (Janssen Pharmaceutica NV, priority 2023, published 2026)
# Tested on: subjects with moderate-to-severe plaque psoriasis
# Experiment: IGA score, Example 1
# Type: in vivo, human
# Conditions: Week 16
# Procedure: The Investigator's Global Assessment (IGA) documents the investigator's assessment of the participant's psoriasis at a given time point. Overall lesions are graded for induration, erythema, and scaling. The participant's psoriasis is assessed as cleared (0), minimal (1), mild (2), moderate (3), or severe (4).
# This was a randomized, double-blind, placebo-controlled, dose-ranging, parallel group, multicenter, interventional study in subjects with moderate-to-severe plaque psoriasis. A target of 240 subjects were enrolled in this study with 40 subjects planned per intervention group.
# Clinician-reported outcomes including Psoriasis Area and Severity Index (PASI), Body Surface Area (BSA), Investigator's Global Assessment (IGA), Nail Psoriasis Area and Severity Index (NAPSI), Fingernail Physician's Global Assessment (f-PGA), Static Physician's Global Assessment of Genitalia (s-PGA-G), Physician's Global Assessment of Hands and/or Feet (hf-PGA), and Scalp Specific Investigator Global Assessment (ss-IGA) were obtained at Week 0, 8, and 16. PASI and IGA were also obtained at Weeks 1, 2, 4, and 12, and at Week 20, four weeks after the administration of the tablets has stopped.
# [1] = 25 mg BID, peak plasma conc. <Q1, N=2
# [2] = 25 mg BID, peak plasma conc. Q1 to <Q2, N=2
# [3] = 25 mg BID, peak plasma conc. Q2 to <Q3, N=2
# [4] = 25 mg BID, peak plasma conc. ≥Q3, N=2
# [5] = 25 mg BID, trough plasma conc <Q1
# [6] = 25 mg BID, trough plasma conc Q1 to <Q2
# [7] = 25 mg BID, trough plasma conc Q2 to <Q3
# [8] = 25 mg BID, trough plasma conc ≥Q3
# [9] = 25 mg QD, peak plasma conc. <Q1, N=2
# [10] = 25 mg QD, peak plasma conc. Q1 to <Q2, N=2
# [11] = 25 mg QD, peak plasma conc. Q2 to <Q3, N=2
# [12] = 25 mg QD, peak plasma conc. ≥Q3, N=2
# [13] = 25 mg QD, trough plasma conc <Q1
# [14] = 25 mg QD, trough plasma conc Q1 to <Q2
# [15] = 25 mg QD, trough plasma conc Q2 to <Q3
# [16] = 25 mg QD, trough plasma conc ≥Q3
# [17] = 50 mg QD, peak plasma conc. <Q1, N=2
# [18] = 50 mg QD, peak plasma conc. Q1 to <Q2, N=2
# [19] = 50 mg QD, peak plasma conc. Q2 to <Q3, N=2
# [20] = 50 mg QD, peak plasma conc. ≥Q3, N=2
# [21] = 50 mg QD, trough plasma conc <Q1
# [22] = 50 mg QD, trough plasma conc Q1 to <Q2
# [23] = 50 mg QD, trough plasma conc Q2 to <Q3
# [24] = 50 mg QD, trough plasma conc ≥Q3
# [25] = 100 mg BID, peak plasma conc. <Q1, N=2
# [26] = 100 mg BID, peak plasma conc. Q1 to <Q2, N=3
# [27] = 100 mg BID, peak plasma conc. Q2 to <Q3, N=2
# [28] = 100 mg BID, peak plasma conc. ≥Q3, N=3
# [29] = 100 mg BID, trough plasma conc <Q1
compound,measurement,setting,value
"CC(=O)NCCCC[C@@H]1NC(=O)[C@H](Cc2c[nH]c3c(C)cccc23)NC(=O)[C@H]([C@@H](C)O)NC(=O)[C@H](CC(N)=O)NC(=O)[C@@H](NC(C)=O)C(C)(C)SSC(C)(C)[C@@H](C(=O)N[C@@H](Cc2ccc(OCCN)cc2)C(=O)N[C@@H](Cc2ccc3ccccc3c2)C(=O)NC2(C(=O)N[C@@H](CCC(=O)O)C(=O)N[C@@H](CC(N)=O)C(=O)N[C@@H](Cc3cccnc3)C(=O)N(C)CC(N)=O)CCOCC2)NC1=O [IL-23 receptor antagonist peptide, Ac-[Pen]*-N-T-[W(7-Me)]-[Lys(Ac)]-[Pen]*-Phe[4-(2-aminoethoxy)]-[2-Nal]-[THP]-E-N-[3-Pal]-Sarc-NH2 (*[Pen]-[Pen]* formdisulfidebond)]",IGA 0 or 1 treatment difference vs placebo,25 mg BID,"39.5% (21.7%,"
same,IGA 0 treatment difference vs placebo,25 mg BID,"14.6% (4.0%,"
same,Subjects achieving IGA Score = 0,25 mg BID,(14.6%)
same,Subjects achieving IGA Score = 0 or 1,25 mg BID,(51.2%)
same,"IGA score 0, %","25 mg BID, N=41",(14.6) %
same,"IGA score 0/1, %","25 mg BID, N=41",(51.2) %
same,"IGA Score = 0, n subjects",[1],0
same,"IGA Score = 0 or 1, n subjects",[1],0
same,"IGA Score = 0, n subjects",[2],0
same,"IGA Score = 0 or 1, % subjects",[2],(50.0%)
same,"IGA Score = 0 or 1, n subjects",[2],1
same,"IGA Score = 0, n subjects",[3],0
same,"IGA Score = 0 or 1, % subjects",[3],(50.0%)
same,"IGA Score = 0 or 1, n subjects",[3],1
same,"IGA Score = 0, % subjects",[4],(50.0%)
same,"IGA Score = 0, n subjects",[4],1
same,"IGA Score = 0 or 1, % subjects",[4],(50.0%)
same,"IGA Score = 0 or 1, n subjects",[4],1
same,"IGA Score = 0, subjects",[5],2 (33.3%)
same,"IGA Score = 0 or 1, subjects",[5],4 (66.7%)
same,"IGA Score = 0, subjects",[6],1 (16.7%)
same,"IGA Score = 0 or 1, subjects",[6],1 (16.7%)
same,"IGA Score = 0, subjects",[7],0
same,"IGA Score = 0 or 1, subjects",[7],4 (66.7%)
same,"IGA Score = 0, subjects",[8],2 (33.3%)
same,"IGA Score = 0 or 1, subjects",[8],100.0%
same,IGA 0 or 1 treatment difference vs placebo,25 mg QD,"27.9% (10.5%,"
same,IGA 0 treatment difference vs placebo,25 mg QD,"16.3% (5.3%,"
same,Subjects achieving IGA Score = 0,25 mg QD,(16.3%)
same,Subjects achieving IGA Score = 0 or 1,25 mg QD,(39.5%)
same,"IGA score 0, %","25 mg QD, N=43",(16.3) %
same,"IGA score 0/1, %","25 mg QD, N=43",(39.5) %
same,"IGA Score = 0, n subjects",[9],0
same,"IGA Score = 0 or 1, % subjects",[9],(50.0%)
same,"IGA Score = 0 or 1, n subjects",[9],1
same,"IGA Score = 0, n subjects",[10],0
same,"IGA Score = 0 or 1, % subjects",[10],(50.0%)
same,"IGA Score = 0 or 1, n subjects",[10],1
same,"IGA Score = 0, % subjects",[11],(50.0%)
same,"IGA Score = 0, n subjects",[11],1
same,"IGA Score = 0 or 1, % subjects",[11],(50.0%)
same,"IGA Score = 0 or 1, n subjects",[11],1
same,"IGA Score = 0, n subjects",[12],0
same,"IGA Score = 0 or 1, % subjects",[12],(50.0%)
same,"IGA Score = 0 or 1, n subjects",[12],1
same,"IGA Score = 0, subjects",[13],1 (20.0%)
same,"IGA Score = 0 or 1, subjects",[13],2 (40.0%)
same,"IGA Score = 0, subjects",[14],2 (33.3%)
same,"IGA Score = 0 or 1, subjects",[14],3 (50.0%)
same,"IGA Score = 0, subjects",[15],0
same,"IGA Score = 0 or 1, subjects",[15],1 (20.0%)
same,"IGA Score = 0, subjects",[16],1 (16.7%)
same,"IGA Score = 0 or 1, subjects",[16],4 (66.7%)
same,IGA 0 or 1 treatment difference vs placebo,50 mg QD,"46.5% (29.1%,"
same,IGA 0 treatment difference vs placebo,50 mg QD,"34.9% (20.8%,"
same,Subjects achieving IGA Score = 0,50 mg QD,15 (34.9%)
same,Subjects achieving IGA Score = 0 or 1,50 mg QD,25 (58.1%)
same,"IGA score 0, %","50 mg QD, N=43",34.9%
same,"IGA score 0/1, %","50 mg QD, N=43",58.1%
same,"IGA Score = 0, n subjects",[17],0
same,"IGA Score = 0 or 1, n subjects",[17],0
same,"IGA Score = 0, % subjects",[18],(100.0%)
same,"IGA Score = 0, n subjects",[18],2
same,"IGA Score = 0 or 1, % subjects",[18],(100.0%)
same,"IGA Score = 0 or 1, n subjects",[18],2
same,"IGA Score = 0, n subjects",[19],0
same,"IGA Score = 0 or 1, % subjects",[19],(100.0%)
same,"IGA Score = 0 or 1, n subjects",[19],2
same,"IGA Score = 0, n subjects",[20],0
same,"IGA Score = 0 or 1, % subjects",[20],(100.0%)
same,"IGA Score = 0 or 1, n subjects",[20],2
same,"IGA Score = 0, subjects",[21],1 (20.0%)
same,"IGA Score = 0 or 1, subjects",[21],2 (40.0%)
same,"IGA Score = 0, subjects",[22],3 (60.0%)
same,"IGA Score = 0 or 1, subjects",[22],4 (80.0%)
same,"IGA Score = 0, subjects",[23],2 (40.0%)
same,"IGA Score = 0 or 1, subjects",[23],2 (40.0%)
same,"IGA Score = 0, subjects",[24],2 (40.0%)
same,"IGA Score = 0 or 1, subjects",[24],3 (60.0%)
same,IGA 0 or 1 treatment difference vs placebo,100 mg BID,"52.8% (36.0%,"
same,IGA 0 treatment difference vs placebo,100 mg BID,"45.3% (30.6%,"
same,Subjects achieving IGA Score = 0,100 mg BID,(45.2%)
same,Subjects achieving IGA Score = 0 or 1,100 mg BID,(64.3%)
same,"IGA score 0, %","100 mg BID, N=42",45.2%
same,"IGA score 0/1, %","100 mg BID, N=42",64.3%
same,"IGA Score = 0, % subjects",[25],(50.0%)
same,"IGA Score = 0, n subjects",[25],1
same,"IGA Score = 0 or 1, % subjects",[25],(100.0%)
same,"IGA Score = 0 or 1, n subjects",[25],2
same,"IGA Score = 0, % subjects",[26],(66.7%)
same,"IGA Score = 0, n subjects",[26],2
same,"IGA Score = 0 or 1, % subjects",[26],(66.7%)
same,"IGA Score = 0 or 1, n subjects",[26],2
same,"IGA Score = 0, % subjects",[27],(50.0%)
same,"IGA Score = 0, n subjects",[27],1
same,"IGA Score = 0 or 1, % subjects",[27],(50.0%)
same,"IGA Score = 0 or 1, n subjects",[27],1
same,"IGA Score = 0, % subjects",[28],(66.7%)
same,"IGA Score = 0, n subjects",[28],2
same,"IGA Score = 0 or 1, % subjects",[28],(100.0%)
same,"IGA Score = 0 or 1, n subjects",[28],3
same,"IGA Score = 0, subjects",[29],1 (25.0%)
same,"IGA Score = 0 or 1, subjects",[29],3 (75.0%)
same,"IGA Score = 0, subjects","100 mg BID, trough plasma conc Q1 to <Q2",2 (40.0%)
